Assay results as given in BindingDB's records for doi:10.1046/j.1471-4159.1998.70052147.x (F. Hoffmann-La Roche, 1998).
Counter-ions that a name gives are not always drawn.

Target: Glutamate receptor ionotropic, NMDA 1 (Rattus norvegicus, UniProt P35439)

Row | Compound | Ki [nM]
1 | COc1cc2c(cc1O)C(CCc1ccc(Cl)cc1)N(C)CC2 (stereo unspecified) [Ro 04-5595] | 20
2 | NCCCNCCCCNCCCN [N,N''-bis(3-azanylpropyl)butane-1,4-diamine;hydrochloride] | 2000
3 | OC(CN1CCC(Cc2ccc(F)cc2)CC1)c1ccc(Cl)cc1 (stereo unspecified) | 300
4 | C[C@@H](CN1CCC(Cc2ccccc2)CC1)[C@@H](O)c1ccc(O)cc1 | 6
5 | C[C@@H]([C@@H](O)c1ccc(O)cc1)N1CCC(O)(c2ccccc2)CC1 [1-[(1S,2S)-2-Hydroxy-2-(4-hydroxy-phenyl)-1-methyl-ethyl]-4-phenyl-piperidin-4-ol] | 8
6 | NCCCCNCCCN [spermidine] | > 10000
